Assay results reported in ChEMBL document CHEMBL4406865, “Design, synthesis and biological evaluation of novel semicarbazone-selenochroman-4-ones hybrids as potent antifungal agents” (2019).
In brackets after ≈: the same amount, converted by molar mass.

What was measured:
Assay type in all cases: functional
Aspergillus fumigatus = assay: Antifungal activity against Aspergillus fumigatus CGMCC 3.7795 measured at 72 hrs by CLSI protocol based microbroth dilution method; conditions: CGMCC 3.7795, 72 h
Candida albicans [1] = assay: Antifungal activity against Candida albicans CPCC400616 measured at 24 hrs by CLSI protocol based microbroth dilution method; conditions: CPCC400616, 24 h
Cryptococcus neoformans = assay: Antifungal activity against Cryptococcus neoformans CGMCC2.3161 measured at 72 hrs by CLSI protocol based microbroth dilution method; conditions: CGMCC2.3161, 72 h
[Candida] zeylanoides = Antifungal activity against Candida zeylanoides CGMCC2.3739 measured at 24 hrs by CLSI protocol based microbroth dilution method; conditions: Dujonia zeylanoides, CGMCC2.3739, 24 h
Candida albicans [2] = assay: Antifungal activity against Candida albicans SC5314 incubated for 24 hrs by CLSI protocol based microbroth dilution method; conditions: SC5314, 24 h
Candida albicans [3] = assay: Antifungal activity against fluconazole-resistant Candida albicans CaR incubated for 24 hrs by CLSI protocol based microbroth dilution method
Candida albicans [4] = assay: Antifungal activity against fluconazole-resistant Candida albicans isolate 103 incubated for 24 hrs by CLSI protocol based microbroth dilution method; conditions: isolate 103, 24 h
Candida albicans [5] = assay: Antifungal activity against fluconazole-resistant Candida albicans isolate 100 incubated for 24 hrs by CLSI protocol based microbroth dilution method; conditions: isolate 100, 24 h
Candida albicans [6] = assay: Antifungal activity against fluconazole-resistant Candida albicans isolate 17 incubated for 24 hrs by CLSI protocol based microbroth dilution method; conditions: isolate 17, 24 h

| SMILES | MIC90 (Aspergillus fumigatus) [µg/mL] | MIC90 (Candida albicans [1]) [µg/mL] | MIC90 (Cryptococcus neoformans) [µg/mL] | MIC90 ([Candida] zeylanoides) [µg/mL] | MIC90 (Candida albicans [2]) [µg/mL] | MIC90 (Candida albicans [3]) [µg/mL] | MIC90 (Candida albicans [4]) [µg/mL] | MIC90 (Candida albicans [5]) [µg/mL] | MIC90 (Candida albicans [6]) [µg/mL] |
| --- | --- | --- | --- | --- | --- | --- | --- | --- | --- |
| NNC(=S)NN | > 128 | 32 (≈ 301 µM) | 64 (≈ 603 µM) | 64 (≈ 603 µM) | 64 (≈ 603 µM) |  |  |  |  |
| Cc1ccc2c(c1)/C(=N/NC(=S)Nc1ccccc1)CC[Se]2 | > 128 | 64 (≈ 171 µM) | 16 (≈ 42.7 µM) | > 128 | 64 (≈ 171 µM) |  |  |  |  |
| Cc1ccc2c(c1)/C(=N/NC(=S)NN)CC[Se]2 | > 128 | 8 (≈ 25.5 µM) | 4 (≈ 12.8 µM) | > 128 | 8 (≈ 25.5 µM) |  |  |  |  |
| CCc1ccccc1NC(=O)N/N=C1\CC[Se]c2ccc(C)cc21 | > 128 | 64 (≈ 166 µM) | 4 (≈ 10.4 µM) | 16 (≈ 41.4 µM) | 64 (≈ 166 µM) |  |  |  |  |
| COc1cccc(NC(=S)N/N=C2\CC[Se]c3ccc(C)cc32)c1 | > 128 | 64 (≈ 158 µM) | 32 (≈ 79.1 µM) | > 128 | 64 (≈ 158 µM) |  |  |  |  |
| Cc1ccc2c(c1)/C(=N/NC(=O)Nc1cccc(Br)c1)CC[Se]2 | > 128 | > 128 | > 128 | > 128 | > 128 |  |  |  |  |
| O=C1CC[Se]c2ccc(F)cc21 | > 128 | 16 (≈ 69.8 µM) | > 128 | > 128 | 4 (≈ 17.5 µM) |  |  |  |  |
| COc1ccc(OC)c(NC(=S)N/N=C2\CC[Se]c3ccc(F)cc32)c1 | 64 (≈ 146 µM) | 8 (≈ 18.2 µM) | 4 (≈ 9.12 µM) | 4 (≈ 9.12 µM) | 2 (≈ 4.56 µM) | 4 (≈ 9.12 µM) | 4 (≈ 9.12 µM) | 2 (≈ 4.56 µM) | 2 (≈ 4.56 µM) |
| COc1ccc(OC)c(NC(=S)N/N=C2\CC[Se]c3ccccc32)c1 | > 128 | 8 (≈ 19 µM) | 2 (≈ 4.76 µM) | 32 (≈ 76.1 µM) | 4 (≈ 9.51 µM) |  |  |  |  |
| Cc1ccc(NC(=S)N/N=C2\CC[Se]c3ccc(F)cc32)cc1 | > 128 | 8 (≈ 20.4 µM) | 2 (≈ 5.1 µM) | 16 (≈ 40.8 µM) | 32 (≈ 81.6 µM) |  |  |  |  |
| CCc1ccccc1NC(=O)NN | > 128 | 64 (≈ 357 µM) | 32 (≈ 179 µM) | 64 (≈ 357 µM) | 32 (≈ 179 µM) |  |  |  |  |
| Cc1ccc(C)c(NC(=O)N/N=C2\CC[Se]c3ccc(F)cc32)c1 | > 128 | 8 (≈ 20.5 µM) | > 128 | > 128 | 4 (≈ 10.2 µM) |  |  |  |  |
| Cc1ccc(C)c(NC(=O)N/N=C2\CC[Se]c3ccc(C)cc32)c1 | > 128 | 64 (≈ 166 µM) | 64 (≈ 166 µM) | > 128 | 64 (≈ 166 µM) |  |  |  |  |
| O=C(N/N=C1\CC[Se]c2ccc(F)cc21)Nc1cc(Cl)cc(Cl)c1 | > 128 | > 128 | > 128 | > 128 | > 128 |  |  |  |  |
| O=C1CC[Se]c2ccccc21 | > 128 | 64 (≈ 303 µM) | 8 (≈ 37.9 µM) | > 128 | 4 (≈ 18.9 µM) |  |  |  |  |
| CCOc1ccc(NC(=O)N/N=C2\CC[Se]c3ccc(C)cc32)cc1 | > 128 | 64 (≈ 159 µM) | 32 (≈ 79.5 µM) | > 128 | 8 (≈ 19.9 µM) |  |  |  |  |
| Cc1ccc(C)c(NC(=S)N/N=C2\CC[Se]c3ccc(F)cc32)c1 | > 128 | 8 (≈ 19.7 µM) | 16 (≈ 39.4 µM) | > 128 | 32 (≈ 78.7 µM) |  |  |  |  |
| O=C(N/N=C1\CC[Se]c2ccc(F)cc21)Nc1ccccc1Cl | > 128 | 8 (≈ 20.2 µM) | 16 (≈ 40.3 µM) | 8 (≈ 20.2 µM) | 2 (≈ 5.04 µM) |  |  |  |  |

| SMILES | MIC90 (Aspergillus fumigatus) [µg/mL] | MIC90 (Candida albicans [1]) [µg/mL] | MIC90 (Cryptococcus neoformans) [µg/mL] | MIC90 ([Candida] zeylanoides) [µg/mL] | MIC90 (Candida albicans [2]) [µg/mL] | MIC90 (Candida albicans [3]) [µg/mL] | MIC90 (Candida albicans [4]) [µg/mL] | MIC90 (Candida albicans [5]) [µg/mL] | MIC90 (Candida albicans [6]) [µg/mL] |
| --- | --- | --- | --- | --- | --- | --- | --- | --- | --- |
| NNC(=S)Nc1ccccc1 | > 128 | 64 (≈ 383 µM) | 64 (≈ 383 µM) | > 128 | > 128 |  |  |  |  |
| Cc1ccc2c(c1)C(=O)CC[Se]2 | > 128 | 32 (≈ 142 µM) | > 128 | > 128 | 4 (≈ 17.8 µM) |  |  |  |  |
| CCc1ccccc1NC(=O)N/N=C1\CC[Se]c2ccc(F)cc21 | > 128 | 8 (≈ 20.5 µM) | > 128 | > 128 | 8 (≈ 20.5 µM) |  |  |  |  |
| Fc1ccc2c(c1)/C(=N/NC(=S)Nc1ccccc1)CC[Se]2 | > 128 | 0.25 (≈ 0.661 µM) | 2 (≈ 5.29 µM) | 8 (≈ 21.1 µM) | 2 (≈ 5.29 µM) | 2 (≈ 5.29 µM) | 0.5 (≈ 1.32 µM) | 0.5 (≈ 1.32 µM) | 2 (≈ 5.29 µM) |
| S=C(N/N=C1\CC[Se]c2ccccc21)Nc1ccccc1 | > 128 | 0.5 (≈ 1.39 µM) | 8 (≈ 22.2 µM) | 1 (≈ 2.78 µM) | 4 (≈ 11.1 µM) | 64 (≈ 178 µM) | > 128 | 32 (≈ 88.8 µM) | 4 (≈ 11.1 µM) |
| Cc1ccc(C)c(NC(=S)N/N=C2\CC[Se]c3ccccc32)c1 | > 128 | 16 (≈ 41.2 µM) | 16 (≈ 41.2 µM) | 128 (≈ 330 µM) | 8 (≈ 20.6 µM) |  |  |  |  |
| Cc1ccc2c(c1)/C(=N/NC(=O)Nc1ccccc1)CC[Se]2 | > 128 | 64 (≈ 179 µM) | 8 (≈ 22.3 µM) | 16 (≈ 44.7 µM) | 4 (≈ 11.2 µM) |  |  |  |  |
| Cc1ccc(NC(=S)N/N=C2\CC[Se]c3ccccc32)cc1 | > 128 | 8 (≈ 21.4 µM) | 8 (≈ 21.4 µM) | 128 (≈ 342 µM) | 64 (≈ 171 µM) |  |  |  |  |
| CCc1ccccc1NC(=O)N/N=C1\CC[Se]c2ccccc21 | > 128 | > 128 | > 128 | > 128 | > 128 |  |  |  |  |
| O=C(N/N=C1\CC[Se]c2ccc(F)cc21)Nc1cccc(Br)c1 | > 128 | 16 (≈ 36.3 µM) | 16 (≈ 36.3 µM) | > 128 | 64 (≈ 145 µM) |  |  |  |  |
| Cc1ccc2c(c1)/C(=N/NC(=O)Nc1ccccc1Cl)CC[Se]2 | > 128 | 64 (≈ 163 µM) | 64 (≈ 163 µM) | > 128 | 32 (≈ 81.5 µM) |  |  |  |  |
| Cc1ccc(NC(=S)N/N=C2\CC[Se]c3ccc(C)cc32)cc1 | > 128 | 64 (≈ 165 µM) | 32 (≈ 82.4 µM) | 8 (≈ 20.6 µM) | 16 (≈ 41.2 µM) |  |  |  |  |
| Cc1ccc(C)c(NC(=S)N/N=C2\CC[Se]c3ccc(C)cc32)c1 | > 128 | 2 (≈ 4.97 µM) | 16 (≈ 39.8 µM) | 128 (≈ 318 µM) | 2 (≈ 4.97 µM) |  |  |  |  |
| CCOc1ccc(NC(=O)N/N=C2\CC[Se]c3ccc(F)cc32)cc1 | > 128 | 8 (≈ 19.7 µM) | 32 (≈ 78.8 µM) | 16 (≈ 39.4 µM) | 4 (≈ 9.84 µM) |  |  |  |  |
| COc1ccc(OC)c(NC(=S)N/N=C2\CC[Se]c3ccc(C)cc32)c1 | > 128 | 64 (≈ 147 µM) | 32 (≈ 73.7 µM) | 128 (≈ 295 µM) | 32 (≈ 73.7 µM) |  |  |  |  |
| Cc1ccc2c(c1)/C(=N/NC(=O)Nc1cc(Cl)cc(Cl)c1)CC[Se]2 | > 128 | > 128 | > 128 | > 128 | > 128 |  |  |  |  |
| COc1cccc(NC(=S)N/N=C2\CC[Se]c3ccccc32)c1 | > 128 | 16 (≈ 41 µM) | 4 (≈ 10.2 µM) | 2 (≈ 5.12 µM) | 16 (≈ 41 µM) |  |  |  |  |
| COc1cccc(NC(=S)N/N=C2\CC[Se]c3ccc(F)cc32)c1 | > 128 | 8 (≈ 19.6 µM) | 1 (≈ 2.45 µM) | 2 (≈ 4.9 µM) | 16 (≈ 39.2 µM) |  |  |  |  |
